Values of other authors, collected in paper PMC6343925, “Cholesterol re-organisation and lipid de-packing by arginine-rich cell penetrating peptides: Role in membrane translocation” (PLoS ONE, 2019).
No end group written: not given here.

Conditions: membranes contained PG; same experimental approach

Compound | translocation into LUVs
N=C(N)NCCC[C@H](NC(=O)[C@H](CCCNC(=N)N)NC(=O)[C@H](CCCNC(=N)N)NC(=O)[C@H](CCCNC(=N)N)NC(=O)[C@H](CCCNC(=N)N)NC(=O)[C@H](CCCNC(=N)N)NC(=O)[C@H](CCCNC(=N)N)NC(=O)[C@H](CCCNC(=N)N)NC(=O)[C@@H](N)CCCNC(=N)N)C(N)=O [R9, Nona-arginine] | able to translocate
RRWWRRWRR-NH2 [RW9] | able to translocate
